Source: US11325883B2, “Functionalized N,N-dialkylamino phenyl ethers and their method of use” (Temple University—Of The Commonwealth System of Higher …, priority 2017, dated 2022)

Assays:
[1] = system: Gaucher patient fibroblasts (L444P/L444P, GM08760); assay: GPN induced calcium release phenotypic assay on Gaucher patient cells; format: cell-based, human; conditions: for Maximal % Change in GPN Response / EC50: Gaucher patient cells, 72 hours compound treatment; for Maximal % Change in GPN Response: GPN response with drug/without drug x100; for EC50: Homo sapiens, Fibroblast, 12-point curve in triplicate
Description: Phenotypic Assay: A phenotypic cellular assay utilizing lysosomal storage disorder (LSD) patient derived cells was developed to identify compounds with disease modifying activity to reverse or attenuate the disease phenotype to non-disease levels. […] This functional readout of the LSD diseased state was developed into a high throughput screening assay.
Disruption of lysosomal calcium homeostasis has been linked to the pathophysiology of lysosomal storage disorders including Gaucher disease (Lloyd-Evans, E, Morgan A J, He X, Smith D A, Elliot-Smith E, Sillence D J, Churchill G C, Schuchman E H, Galione A, Platt F M. (2008) Niemann-Pick disease type C1 is a sphingosine storage disease that causes deregulation of lysosomal calcium. Nat Med. 14(11):1247-55. Lloyd-Evans E, Platt F M. (2011) Lysosomal Ca(^2+) homeostasis: role in pathogenesis of lysosomal storage diseases. Cell Calcium. 50(2):200-205. Morgan, A J, Platt, F M, Lloyd-Evans, E and Galione, A (2011) Molecular mechanism of endolysosomal Ca^2+ signaling in health and disease. Biochem. J. 439:349-374.). Calcium release from acidic lysosomal stores can be induced by addition of Gly-Phe-β-napthylamide (GPN), a substrate of cathepsin C, which upon hydrolysis, produces osmotic lysis of lysosomes and release of calcium specifically from lysosomal acidic stores into the cytosol. The increase of intracellular calcium released from lysosomes can be detected with cell membrane permeable calcium sensitive indicators.
(§1) Cells (800 cells/well) were plated with a MultiFlo dispenser (BioTek) and cultured for 24 h at 37° C., 5% CO2. The screening compounds were then added to cells under sterile conditions and continued in culture for 72 hours. Cells were loaded with Screen Quest™ Fluo-8 No Wash Calcium mix (ATT Bio) and analyzed for changes in response to GPN. The data from each well were normalized with basal fluorescence by dividing the maximum fluorescence over the entire real time reading by the initial basal fluorescence. […] EC50 and Hill slope values are determined using a four-parameter dose-response (variable slope) equation in GraphPad Prism. The % change in GPN response is calculated as the ratio of GPN response measured in the presence of drug/GPN response measured in the absence of drug×100. […] The maximal % change in GPN response is calculated as the ratio of GPN response measured in the presence of drug/GPN response measured in the absence of drug×100.
Gaucher patient fibroblasts (Coreill Institute, GM08760) were cultured in EMEM with 15% FBS, 1% Pen/Strep at 37° C./5% CO2. Wild-type patient fibroblasts (Coriell Institute, GM 005659) were used as a control cell line. Cells are plated with a MultiFlo dispenser (800 cells/well in 30 μL of complete growth media) in black/clear bottom 384-well plates and cultured for 24 hours at 37° C., 5% CO2. Compounds of the disclosure are then added to the cells (12 point dose response curve, 150 nM to 30 uM final compound concentration using a 5.0 μL of a 7× stock solution (1.05 μM to 210 μM)) under sterile conditions and continued in culture for 72 hours at 37° C., 5% CO2. For intracellular calcium measurements, media is removed and 20 μL of calcium dye mixture (Screen Quest™ Fluo-8 No Wash Calcium mix, ATT Bioquest) is added to each well, incubated for 30 minutes at 37° C., followed by 22° C. for 30 minutes.

[2] = system: Wild-type patient fibroblasts (GM 005659); conditions: wild type cells
Description: as §1
Gaucher patient fibroblasts (Coreill Institute, GM08760) were cultured in EMEM with 15% FBS, 1% Pen/Strep at 37° C./5% CO2. Wild-type patient fibroblasts (Coriell Institute, GM 005659) were used as a control cell line. […] The data from each well were normalized with basal fluorescence by dividing the maximum fluorescence over the entire real time reading by the initial basal fluorescence.

| SMILES | Maximal % Change in GPN Response [1] [%] | EC50 [1] [nM] | increase in GPN-induced calcium response [2] | increase in calcium response ([1]; compared with 0.1% DMSO treated Gaucher patient cells) [%] |
| --- | --- | --- | --- | --- |
| CCC(C(=O)c1ccc(OCCN(C)C)cc1)c1ccccc1-c1ccc(F)cc1 (centres unmarked) [Example 5, 1-(4-(2-(dimethylamino)ethoxy)phenyl)-2-(4′-fluoro-[1,1′-biphenyl]-2-yl)butan-1-one] | 630 | 266 | – | – |
| CNCCOc1ccc(C(=O)C(CC(C)C)c2ccccc2-c2ccc(F)cc2)cc1 (centres unmarked) [Example 9, 2-(4′-fluoro-[1,1′-biphenyl]-2-yl)-4-methyl-1-(4-(2-(methylamino)-ethoxy)phenyl)pentan-1-one] | 617 | 236 | – | – |
| CCCC(C(=O)c1ccc(OCCNC)cc1)c1ccccc1-c1ccc(F)cc1 (centres unmarked) [Example 8, 2-(4′-fluoro-[1,1′-biphenyl]-2-yl)-1-(4-(2-(methylamino)ethoxy)phenyl)pentan-1-one] | 330 | 356 | – | – |
| CCC(C(=O)c1ccc(OCCNC)cc1)c1ccccc1-c1ccc(F)cc1 (centres unmarked) [Example 7, 2-(4′-fluoro-[1,1′-biphenyl]-2-yl)-1-(4-(2-(methylamino)ethoxy)phenyl)butan-1-one] | 515 | 425 | – | – |
| CC/C(=C(\c1ccccc1)c1ccc(OCCN(C)C)cc1)c1ccccc1 [Tamoxifen, reference compound] | – | – | 30+/−20% | 200±50 |
| CN(C)CCOc1ccc(C(=O)Cc2ccccc2-c2ccccc2Cl)cc1 [Example 2, 2-(2′-Chloro-[1,1′-biphenyl]-2-yl)-1-(4-(2-(dimethylamino)ethoxy)phenyl)ethanone] | 160 | 1800 | – | – |
| CC(C)CC(C(=O)c1ccc(OCCN(C)C)cc1)c1ccccc1-c1ccc(F)cc1 (centres unmarked) [Example 3, 1-(4-(2-(dimethylamino)ethoxy)phenyl)-2-(4′-fluoro-[1,1′-biphenyl]-2-yl)-4-methylpentan-1-one] | 400 | 185 | – | – |
| CN(C)CCOc1ccc(C(=O)Cc2ccccc2-c2ccc(F)cc2)cc1 [Example 1, 1-(4-(2-(Dimethylamino)ethoxy)phenyl)-2-(4′-fluoro-[1,1′-biphenyl]-2-yl)ethanone] | 250 | 3600 | – | – |
| CCCC(C(=O)c1ccc(OCCN(C)C)cc1)c1ccccc1-c1ccc(F)cc1 (centres unmarked) [Example 6, 1-(4-(2-(dimethylamino)ethoxy)phenyl)-2-(4′-fluoro-[1,1′-biphenyl]-2-yl)pentan-1-one] | 410 | 424 | – | – |
| CN(C)CCOc1ccc(C(=O)C(CC2CC2)c2ccccc2-c2ccc(F)cc2)cc1 (centres unmarked) [Example 4, 3-cyclopropyl-1-(4-(2-(dimethylamino)ethoxy)phenyl)-2-(4′-fluoro-[1,1′-biphenyl]-2-yl)propan-1-one] | 360 | 475 | – | – |
